Read-outs that look alike come from different tables or passages of the source.
Columns and labels:
KLK7 = KLK7 (Homo sapiens, UniProt P49862); test: KLK7 enzyme inhibition assay, fluorogenic substrate Suc-Leu-Leu-Val-Tyr-AMC; assay type: biochemical; conditions: for selective activity against enzyme: KLK7: Table B, among KLK5, KLK7 and KLK14
Description: (§1) Kallikreins KLK5, KLK7 and KLK14 activities were determined by monitoring the hydrolysis of the appropriate fluorogenic substrate (λexc=355, λem=460 nm) for 15 min at 37° C. in the presence of the untreated kallikrein (control) or kallikrein that had been incubated with a test compound. Substrate and compounds were previously dissolved in DMSO, with the final solvent concentration kept constant at 2% (v/v) (KLK 5 and 14), and 4% (v/v) (KLK7). The composition of the activity buffers (pH 8.0) was 100 mM Tris-HCl, 150 mM NaCl, 0.01% (v/v) Tween 20 for the KLK5 assay, and 100 mM Tris-HCl, 1M NaCl, 0.01% (v/v) Tween 20 in the KLK 7 and 14 assays. The final concentrations were 0.6 nM (KLK5) and 100 μM (Boc-Val-Pro-Arg-AMC) (KLK5 assay), 8 nM (KLK7) and 40 μM (Suc-Leu-Leu-Val-Tyr-AMC, AMC: 7-amino-4-methyl-coumarin) (KLK7 assay), and 0.17 nM (KLK14) and 10 μM (Boc-Val-Pro-Arg-AMC) (KLK14 assay). Using the appropriate substrate, the coumarinic compounds (0.01-100 μM) were tested in duplicate for each inhibitor concentration to detect their inhibitory potential. The enzyme and the inhibitors were incubated for 15 min before the determination of the enzyme activity. Initial rates determined in control experiments (V0) were considered to be 100% of the peptidase activity; initial rates below 100% were considered to be inhibitions. The inhibitory activity of compounds was expressed as IC50 (inhibitor concentrations giving 50% inhibition). The values of IC50 were calculated by fitting the experimental data to the equation: % Inhibition=100×(1−Vi/V0)=100[I]0/(IC50+[I]0), or equation: % Inhibition=100[I]0^nH/(IC50^nH+[I]0^nH),nH is the Hill number.
(§2) The tests were realized at 37° C. after 15 min of incubation at pH 8.

KLK14 = target: T1, KLK14 (Homo sapiens, UniProt Q9P0G3); test: KLK14 enzyme inhibition assay, fluorogenic substrate Boc-Val-Pro-Arg-AMC; assay type: biochemical; conditions: 37° C., 15 min of incubation, pH 8
T1 sequence (Q9P0G3 25-251): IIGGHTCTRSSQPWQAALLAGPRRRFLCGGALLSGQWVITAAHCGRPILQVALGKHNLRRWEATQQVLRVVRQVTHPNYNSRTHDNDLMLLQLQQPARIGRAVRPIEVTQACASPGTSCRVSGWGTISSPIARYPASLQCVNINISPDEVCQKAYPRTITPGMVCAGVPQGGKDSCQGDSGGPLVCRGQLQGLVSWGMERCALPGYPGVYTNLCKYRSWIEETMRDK
Description: as §1, §2

KLK5 = target: T2, KLK5 (Homo sapiens, UniProt Q9Y337); test: KLK5 enzyme inhibition assay, fluorogenic substrate Boc-Val-Pro-Arg-AMC; assay type: biochemical; conditions: for IC50: 37° C., 15 min of incubation, pH 8
T2 sequence (Q9Y337 23-293): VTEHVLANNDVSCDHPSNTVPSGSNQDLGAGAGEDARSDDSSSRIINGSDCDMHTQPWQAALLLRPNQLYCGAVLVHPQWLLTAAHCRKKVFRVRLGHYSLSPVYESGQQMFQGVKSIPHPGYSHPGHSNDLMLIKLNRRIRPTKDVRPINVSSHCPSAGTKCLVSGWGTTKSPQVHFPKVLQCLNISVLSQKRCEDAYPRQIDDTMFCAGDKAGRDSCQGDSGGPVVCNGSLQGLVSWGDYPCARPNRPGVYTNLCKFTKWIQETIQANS
Description: as §1, §2

[1] = test system: keratinocytes from a Netherton syndrome patient (NSK); test: Expression of pro-allergic and inflammatory molecules (indirect KLK5 activity) in Netherton syndrome patient keratinocytes; assay type: cell-based, human; conditions: 1 μM, 72 h, relative to HPRT
Description: 250,000 keratinocytes from a Netherton syndrome patient (NSK) were seeded in 6 well plates in 2 mL of medium made of: (a) half of complete Green medium: (Dulbecco's Modified Eagle Media) 60%; Ham's F12 30%; FCS 10%; adenin […]; insulin 5 μg/mL; hydrocortisone 0.4 μg/mL; cholera toxin 10 nM; triiodothyronin 2 nM; human recombinant EGF 10 ng/mL; penicillin G/streptomycin 100 U/mL; (b) half of a basal medium (Epilife—Cascade Biologics).
When confluent, cells were washed 5 times with PBS and 2 mL of complete Green medium without FCS (fetal calf serum) were added per well.
Inhibitors were added in the culture medium 24 h after medium renewal.
350 μL of RLT lysis buffer (Mini Kit QIAGEN)+β-mercapto-ethanol (0.1%) were added per well to extract total RNA. The cell lysate was kept at −80° C. before RNA extraction (Mini Kit QIAGEN).
In this in cellulo test, KLK5 activity was evaluated by an indirect method. Indeed KLK5 induces TSLP (thymic stromal lymphopoietin), TNFα (tumor necrosis factor alpha) and IL-8 (interleukin 8) expression. If KLK5 activity is inhibited, the expression of these cytokines will be reduced.
The relative amount of TSLP, TNFα and IL-8 transcripts [relative to HPRT (hypoxanthine phosphoribosyltransferase 1) housekeeping gene] was compared between cells treated or not treated with the inhibitors. The ratio <<treated/not treated>> relative to housekeeping gene reflects KLK5 inhibition.
Their expression had also been studied even if their mechanism of induction is not known yet.
The effect of LP73 and CFL33 on the expression of the described pro-allergic and inflammatory cytokines was analyzed on keratinocytes from two different NS patients. Each experiment was performed twice (FIG. 4).

[2] = test system: normal human keratinocytes; test: Neutral red uptake (NRU) cytotoxicity test / cell viability; assay type: cell-based; parameters: cytotoxicity, neutral red uptake test (FIG. 5): dose or concentration left out as unconfirmed; conditions: 48 h, human normal keratinocytes
Description: The NRU cytotoxicity assay procedure is a cell survival/viability chemosensitivity assay based on the ability of viable cells to incorporate and bind neutral red (NR), a supravital dye. NR is a weak cationic dye that readily penetrates cell membranes by non-ionic diffusion and accumulates intracellularly in lysosomes. Alterations of the cell surface or the sensitive lysosomal membrane lead to lysosomal fragility and other changes that gradually become irreversible. Such changes caused by the action of xenobiotics result in a decreased uptake and binding of NR. It is thus possible to distinguish between viable, damaged, or dead cells, which is the basis of this assay. After treatment with the small-molecules inhibitors, NR uptake in cells will be measured by spectrophotometry at 540±10 nm.
Keratinocytes from healthy persons or patients with Netherton syndrome are seeded at the density of 4000 cells in 125 μL of medium per well in 96-well plates.
After seeding, cells are incubated for 48 hours in the following experimental conditions: 37° C.±1° C., 90%±5.0% humidity, and 5%±1% CO2/air. This incubation period allows for cell recovery and adherence and progression to exponential growth phase.
Prepare inhibitors solutions 2-fold more concentrated than desired. Add 125 μL of these solutions to the wells without changing or removing the medium (125 μL).
48 h hours after the beginning of the treatment, carefully remove the medium (containing the tested inhibitor) and rinse the cells very carefully with 250 μL pre-warmed PBS.
Add 250 μL NR medium and incubate (37° C.±1° C., 90%±5% humidity, and 5.0%±1% CO2/air) for 3±0.1 h. NR medium is the culture medium containing 33 μg/mL of NR. After incubation, remove the NR medium, and carefully rinse cells with 250 μL pre-warmed PBS.
Measure the absorption (within 60 minutes after adding NR Desorb solution) of the resulting colored solution at 540 nm±10 nm in a microtiter plate reader (spectrophotometer), using the blank as a reference.
A calculation of cell viability expressed as NRU is made for each concentration of the tested inhibitor by using the mean NRU of the three replicate values per each concentration. This value is compared with the mean NRU of all vehicle values. Relative cell viability is then expressed as percent of untreated vehicle control (DMSO).
Normal human keratinocytes were seeded in a 96-well tissue culture plate. At 20% of confluence, molecules were added in the culture medium and incubated for 48 h. Neutral red medium was added to every well for an incubation period of 3 h, then the dye was extracted with acidified ethanol solution. Data (FIGS. 2 and 3) represent the mean cell viability after treatment +/−SD compared to mean viability of cells treated with the vehicle only (DMSO). Data represent the mean of 5 individual experiments.

[3] = test system: total protease activity of transgenic KLK5 mice skin section; test: In situ zymography on transgenic KLK5 mice skin section; assay type: biochemical; conditions: 5 μM
Description: FIG. 6 illustrates the effect of JFR9 compound (5 μM) efficacy on the total protease activity of transgenic KLK5 mice skin section, by in situ zymography.
The protease activity is shown with a gradient of fluorescence. The fluorescence intensity represents the cleavage efficiency of a casein substrate coupled to a FITC group.
JFR9 efficacy has been assayed on transgenic KLK5 mice skin section by in situ zymography (FIG. 6). These mice overexpress KLK5 and reproduce the phenotypic characteristics of Netherton syndrome.

[4] = 37° C., 15 min of incubation, pH 8

Sequence of KLK7 (P49862 30-253): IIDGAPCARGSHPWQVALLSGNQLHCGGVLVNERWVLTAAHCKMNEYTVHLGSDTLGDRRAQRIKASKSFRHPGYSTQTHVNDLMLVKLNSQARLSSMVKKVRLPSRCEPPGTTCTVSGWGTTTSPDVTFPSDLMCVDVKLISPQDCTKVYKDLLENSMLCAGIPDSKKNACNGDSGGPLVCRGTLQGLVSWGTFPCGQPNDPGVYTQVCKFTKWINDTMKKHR

## O=C(Oc1ccc(Cl)cc1)c1cc2cc(CF)ccc2oc1=O [JFR7, 4-Chlorophenyl 6-fluoromethyl-2-oxo-2H-1-benzopyran-3-carboxylate]
other
  melting point: 216 to 218 °C
KLK7; [4]
  inhibition at 50 µM: 30%
KLK7
  selective activity against enzyme: KLK7: KLK7

## O=C(Oc1nccc2ccccc12)c1cc2ccccc2oc1=O [CFL33, Isoquinolin-1-yl 2-oxo-2H-1-benzopyran-3-carboxylate]
KLK14; 100 μM
  inhibition at 100 µM: 61%
KLK5; Table A, read-out: IC50 (μM) KLK5
  IC50: 7 ± 0.4 µM
KLK5; Table B, among KLK5, KLK7 and KLK14
  selective activity against enzyme: KLK5: KLK5
[1]
  expression of IL-8: significantly inhibited
  expression of MDC: significantly inhibited
  expression of TARC: significantly inhibited
[2]; 1 and 10 μM
  cytotoxicity, neutral red uptake test: No noticeable cytotoxicity

## O=C(Oc1ccc2ccccc2c1)c1cc2ccccc2oc1=O [JFR2, 2-Naphthyl 2-oxo-2H-1-benzopyran-3-carboxylate]
other
  melting point: 166 to 167 °C
KLK7; [4]
  inhibition at 50 µM: 30%
KLK7
  selective activity against enzyme: KLK7: KLK7

## O=C(Oc1cccc(Cl)c1)c1cc2cc(CBr)ccc2oc1=O [JFR9, 3-Chlorophenyl 6-bromomethyl-2-oxo-2H-1-benzopyran-3-carboxylate]
KLK14; Table A2, read-out: IC50 (nM) KLK14
  IC50: 2900 ± 100 nM
KLK5; Table A2, read-out: IC50 (nM) KLK5
  IC50: 0.92 ± 0.07 µM
[3]
  total protease activity of skin section (casein-FITC cleavage): decreased significantly
[2]
  cytotoxicity, neutral red uptake test (FIG. 5): No noticeable cytotoxicity
KLK7; Table A2, 37° C., 15 min of incubation, pH 8, read-out: IC50 (nM) KLK7
  IC50: 63.7 ± 1.7 nM
KLK7
  selective activity against enzyme: KLK7: KLK7

## O=C(Oc1cccc2ccccc12)c1cc2ccccc2oc1=O [JFR1, 1-Naphthyl 2-oxo-2H-1-benzopyran-3-carboxylate]
other
  melting point: 159 to 160 °C
KLK7; [4]
  inhibition at 50 µM: 53%
KLK7
  selective activity against enzyme: KLK7: KLK7
